The conditions of data set [1]: weight loss products; Sources: FDA 2010, Natural Medicines Comprehensive Database 2010; cited from earlier work.
In a further data set the test system is mice. Put plainly: Locomotor activity (Columbus Instruments Comprehensive Lab Animal Monitoring System). It is filed as in vivo. How it is done: Locomotor activity was also normal in celastrol-treated mice. This is consistent with celastrol not having a toxic effect causing anorexia and weight loss, since the latter would be associated with decreased locomotor activity.
FIGS. 16A and 16B are graphs showing x (FIG. 16A) and y (FIG. 16B) direction ambulatory motion for control and celastrol in dark and light cycles. Toxicity was evaluated using Columbus Instruments Comprehensive Lab Animal Monitoring System we have measure the locomotor activity of the animals.

Data set [2] relates to alanine transaminase (ALT). Put plainly: Serum ALT by ELISA. It is filed as in vivo. Conditions: three weeks 100 μg/kg i.p., HFD-fed obese mice. On the procedure:
(§1) To investigate the effect of celastrol administration on liver function, serum levels of alanine transaminase (ALT) and aspartate transaminase (AST) were measured in mice following three weeks of celastrol treatment (100 μg/kg, i.p.). ALT and AST were measured using an enzyme-linked immunosorbent assay (ELISA) kit (from Bio Scientific).

Data set [3] relates to aspartate transaminase (AST). The data set is described as follows: Serum AST by ELISA. It is filed as in vivo. The note with it: three weeks 100 μg/kg i.p., HFD-fed obese mice. On the procedure: as §1
For data set [4], the system named is HFD-fed obese mice. Put plainly: Liver and kidney histology (H&E). It is filed as in vivo. Conditions: three weeks 100 μg/kg i.p.
For data set [5], the system named is HFD-fed obese mice. Put plainly: Leptin injection upon acute celastrol treatment, HFD-fed obese mice. It is filed as in vivo. On the procedure: (§2) It was therefore hypothesized that celastrol exerts anti-obesity effects through increasing leptin sensitivity in the brains of the HFD-fed obese mice. To test this hypothesis, leptin was administered to celastrol- or vehicle-treated HFD-fed obese animals. To avoid any possible leptin sensitizing effect of weight loss or decreased food intake created by celastrol administration, leptin injections were carried out upon acute celastrol treatment as described below.
(§3) Lean and HFD-fed obese mice were divided into four groups: 1) DMSO+saline, 2) DMSO+leptin, 3) celastrol+saline, and 4) celastrol+leptin (n=3 per group). Mice were injected (ip) with 100 μg/kg celastrol or vehicle (DMSO) one hour before dark cycle (day zero). 24 hours later, mice were injected for a second time with celastrol or DMSO (day 1), and all animals were then taken to 24 hour-fasting. On day two, at 21 hours of fasting, mice received a final injection of DMSO or celastrol. 30 minutes prior to dark cycle, at 23.5 hour of fasting, mice received a single ip injection of leptin (10 mg/kg, dissolved in saline), or saline. […] 1, 3, 6, 15, and 24-hour food intake and 24-hour body weight changes were recorded (FIG. 7A). […] This is clearly evident when food intake of the celastrol-treated mice is calculated in percent values (FIG. 7B). […]

The subject of another data set is lean mice. The data set is described as follows: Leptin injection upon acute celastrol treatment, lean mice. It is filed as in vivo. Conditions: 6-hour time point, leptin 10 mg/kg ip, DMSO or celastrol 100 μg/kg ip pre-treatment. How it is done: as §2, §3

For “Conjugated linoleic acid [Conjugated linoleic acid (CLA)]”, in data set [1], the Safety entry is “Possibly safe”.
With `CC1=C(O)C(=O)C=C2C1=CC=C1[C@@]2(C)CC[C@@]2(C)[C@@H]3C[C@](C)(C(=O)O)CC[C@]3(C)CC[C@]12C` [celastrol], the locomotor activity result in the data set on mice (celastrol-treated mice) is given as “normal”. Also, in the data set on mice (dark and light cycles, versus control), the “x and y direction ambulatory motion counts” value is recorded as “not significantly different”. In addition, in the data set on mice (drug treated mice), the “visible sign of sickness and toxicity” value is reported as “do not show any visible sign”. In data set [2], the ALT levels entry is given as “decreases”. The AST levels entry in data set [3] was “decreases”. For the same molecule, in the data set on HFD-fed obese mice [4], the kidney morphology entry is given as “no detectable change”.
Turning to `[Cr]` [Chromium], in data set [1], the Safety result is “Likely safe”.

B1: leptin: peptide hormone regulating food intake and body weight; injected ip dissolved in saline (protein, UniProt P41160 22-167, looked up)
Leptin: VPIQKVQDDTKTLIKTIVTRINDISHTQSVSAKQRVTGLDFIPGLHPILSLSKMDQTLAVYQQVLTSLPSQNVLQIANDLENLRDLLHLLAFSKSCSLPQTSGLQKPESLDGVLEASLYSTEVVALSRLQGSLQDILQQLDVSPEC
In the case of B1, the “decrease in food intake upon leptin injection” value in the data set on HFD-fed obese mice [5] (6-hour time point, leptin 10 mg/kg ip, DMSO or celastrol 100 μg/kg ip pre-treatment) was “approximately 40%”; in the data set with lean mice it was “approximately 40%”. The “24-hour body weight change” value in the data set with HFD-fed obese mice [5] (24 hour ad libitum feeding period after 24-hour fasting) is listed as “resistant”.

Source of the values: patent US12064408B2, “Compounds for the treatment of obesity and methods of use thereof” (The Children's Medical Center Corporation, priority 2012, dated 2024).
